Source: patent publication US9694019B2, “Compositions and methods for treating bone diseases and broken bones” (BRIGHAM YOUNG UNIVERSITY, priority 2011, dated 2017)
Residues, ends and D or L forms follow the SMILES beside them. *: point of attachment. Cbz = O=C(OCc1ccccc1)*; OtBu = CC(C)(C)O*

Test system: primary human MSC cells
Assay: BMP regulation: gene expression array (SABiosciences PAHS-026) in primary human MSC cells
Type: cell-based
Conditions: hMSC, 8 hours
Method: SABisosciences custom array plates (Cat#PAHS-026) were used to measure BMP expression. These array plates are validated for efficiency when used at recommended conditions and reagents. On day 1, primary human MSC cells were plated at 200,000 cell/well using 6-well plates with 10% FBS, Penicillin and Streptomycin 10 mL per Liter, in recommended media. Only early passages of cells were used.
On day 2, cells were treated with compounds dissolved in DMSO diluted 1:1000 or more to avoid solvent effects. A non-treated negative control group was evaluated (FIG. 1, “Control Group”) along with a positive control group containing PS1 at 0.1 μM (FIG. 1, “Group 1”). Final testing concentration for CSA-90 was 5.0 μM (FIG. 1, “Group 2”), 2.5 μM (FIG. 1, “Group 3”), and 1.2 μM (FIG. 1, “Group 4”). Treatment lasted 8 hours, followed by RNA isolation using a QIAGEN Miniprep Kit. RNA was measured at 260/280 nm using NanoDrop2000 and normalized to 250 ng. cDNA preparation was done using QIAGEN First Strand kit.

[1] = PS1 0.1 μM, v. untreated control

## CC[C@H](C)[C@H](NC(=O)OCc1ccccc1)C(=O)N[C@@H](CCC(=O)OC(C)(C)C)C(=O)N[C@@H](C)C(=O)N[C@H](C=O)CC(C)C [PS1, reference compound] (Cbz-IE(OtBu)AL-aldehyde)
0.1 μM
  up-regulation of BMP-2 mRNA compared to the control: 3 fold
[1]
  Fold Up-Regulation ACTB (Actin, beta): −1.4183 fold
  Fold Up-Regulation AHSG (Alpha-2-HS-glycoprotein): −1.3295 fold
  Fold Up-Regulation ALPL (Alkaline phosphatase, liver/bone/kidney): −1.4723 fold
  Fold Up-Regulation AMBN (Ameloblastin): −1.9272 fold
  Fold Up-Regulation AMELY (Amelogenin, Y-linked): −1.8864 fold
  Fold Up-Regulation ANXA5 (Annexin A5): 1.1236 fold
  Fold Up-Regulation BGLAP (Bone gamma-carboxyglutamate (gla) protein): −1.3879 fold
  Fold Up-Regulation BGN (Biglycan): −1.1323 fold
  Fold Up-Regulation BMP-1 (Bone morphogenetic protein 1): −1.1214 fold
  Fold Up-Regulation BMP-2 (Bone morphogenetic protein 2): 3.0816 fold
  Fold Up-Regulation BMP-3 (Bone morphogenetic protein 3): −1.1038 fold
  Fold Up-Regulation BMP-4 (Bone morphogenetic protein 4): −2.2148 fold
  Fold Up-Regulation BMP-5 (Bone morphogenetic protein 5): 1.124 fold
  Fold Up-Regulation BMP-6 (Bone morphogenetic protein 6): 2.642 fold
  Fold Up-Regulation CALCR (CALCITONIN RECEPTOR): 1.124 fold
  Fold Up-Regulation CD36 (CD36 molecule, thrombospondin receptor): −1.0202 fold
  Fold Up-Regulation CDH11 (Cadherin 11, type 2, OB-cadherin): −2.2309 fold
  Fold Up-Regulation COL1A1 (Collagen, type I, alpha 1): −1.1935 fold
  Fold Up-Regulation COL1A2 (Collagen, type I, alpha 2): −1.0689 fold
  Fold Up-Regulation COL2A1 (Collagen, type II, alpha 1): −1.4242 fold
  Fold Up-Regulation COL3A1 (Collagen, type III, alpha 1): −1.0806 fold
  Fold Up-Regulation COL4A3 (Collagen, type IV, alpha 3): −1.0619 fold
  Fold Up-Regulation COL5A1 (Collagen, type V, alpha 1): 1.0927 fold
  Fold Up-Regulation COL10A1 (Collagen, type X, alpha 1): 1.5421 fold
  Fold Up-Regulation COL11A1 (Collagen, type XI, alpha 1): −1.4875 fold
  Fold Up-Regulation COL12A1 (Collagen, type XII, alpha 1): 1.0767 fold
  Fold Up-Regulation COL14A1 (Collagen, type XIV, alpha 1): −1.5279 fold
  Fold Up-Regulation COL15A1 (Collagen, type XV, alpha 1): 1.2144 fold
  Fold Up-Regulation COMP (Cartilage oligomeric matrix protein): 1.2648 fold
  Fold Up-Regulation CSF2 (Colony stimulating factor 2): 6.205 fold
  Fold Up-Regulation CSF3 (Colony stimulating factor 3): −2.4364 fold
  Fold Up-Regulation CTSK (Cathepsin K): −1.2679 fold
  Fold Up-Regulation DMP1 (Dentin matrix acidic phosphoprotein 1): 1.124 fold
  Fold Up-Regulation DSPP (Dentin sialophosphoprotein): 1.124 fold
  Fold Up-Regulation EGF (Epidermal growth factor): −1.2529 fold
  Fold Up-Regulation EGFR (Epidermal growth factor receptor): −1.8532 fold
  Fold Up-Regulation ENAM (Enamelin): 1.124 fold
  Fold Up-Regulation FGF1 (Fibroblast growth factor 1): −1.4948 fold
  Fold Up-Regulation FGF2 (Fibroblast growth factor 2): 1.3957 fold
  Fold Up-Regulation FGF3 (Fibroblast growth factor 3): −1.3257 fold
  Fold Up-Regulation FGFR1 (Fibroblast growth factor receptor 1): −1.0999 fold
  Fold Up-Regulation FGFR2 (Fibroblast growth factor receptor 2): −1.2644 fold
  Fold Up-Regulation FLT1 (Fms-related tyrosine kinase 1): −2.7821 fold
  Fold Up-Regulation FN1 (Fibronectin 1): 1.099 fold
  Fold Up-Regulation GAPDH (Glyceraldehyde-3-phosphate dehydrogenase): 1.161 fold
  Fold Up-Regulation GDF10 (Growth differentiation factor 10): 1.124 fold
  Fold Up-Regulation ICAM1 (Intercellular adhesion molecule 1): 1.5053 fold
  Fold Up-Regulation IGF1 (Insulin-like growth factor 1): 1.5067 fold
  Fold Up-Regulation IGF1R (Insulin-like growth factor 1 receptor): −1.0699 fold
  Fold Up-Regulation IGF2 (Insulin-like growth factor 2): −1.2388 fold
  Fold Up-Regulation ITGA1 (Integrin, alpha 1): 1.325 fold
  Fold Up-Regulation ITGA2 (Integrin, alpha 2): −1.0945 fold
  Fold Up-Regulation ITGA3 (Integrin, alpha 3): −1.8917 fold
  Fold Up-Regulation ITGAM (Integrin, alpha M): 1.3319 fold
  Fold Up-Regulation ITGB1 (Integrin, beta 1): 1.1614 fold
  Fold Up-Regulation MMP2 (Matrix metallopeptidase 2): −1.1194 fold
  Fold Up-Regulation MMP8 (Matrix metallopeptidase 8): 3.7453 fold
  Fold Up-Regulation MMP9 (Matrix metallopeptidase 9): −1.2449 fold
  Fold Up-Regulation MMP10 (Matrix metallopeptidase 10): 1.3516 fold
  Fold Up-Regulation MSX1 (Msh homeobox 1): 6.2916 fold
  Fold Up-Regulation NFKB1 (Nuclear factor of kappa light polypeptide gene enhancer in B-cells 1): −1.1038 fold
  Fold Up-Regulation PDGFA (Platelet-derived growth factor alpha polypeptide): 1.0421 fold
  Fold Up-Regulation PHEX (Phosphate regulating endopeptidase homolog, Xlinked): 1.9871 fold
  Fold Up-Regulation RUNX2 (Runt-related transcription factor 2): −3.542 fold
  Fold Up-Regulation SCARB1 (Scavenger receptor class B, member 1): 1.1791 fold
  Fold Up-Regulation SERPIN H1 (Serpin peptidase inhibitor, clade H, member 1): 1.4764 fold
  Fold Up-Regulation SMAD1 (SMAD family member 1): −1.2813 fold
  Fold Up-Regulation SMAD2 (SMAD family member 2): 1.0462 fold
  Fold Up-Regulation SMAD3 (SMAD family member 3): −2.771 fold
  Fold Up-Regulation SMAD4 (SMAD family member 4): 1.3022 fold
  Fold Up-Regulation STATH (Statherin): −2.2674 fold
  Fold Up-Regulation TFIP11 (Tuftelin interacting protein 11): 1.1041 fold
  Fold Up-Regulation TGFB1 (Transforming growth factor, beta 1): −1.2644 fold
  Fold Up-Regulation TGFB2 (Transforming growth factor, beta 2): 1.0081 fold
  Fold Up-Regulation TGFB3 (Transforming growth factor, beta 3): 2.2234 fold
  Fold Up-Regulation TGFBR1 (Transforming growth factor, beta receptor 1): 2.0059 fold
  Fold Up-Regulation TGFBR2 (Transforming growth factor, beta receptor II): −2.3752 fold
  Fold Up-Regulation TNF (Tumor necrosis factor): 1.8055 fold
  Fold Up-Regulation TUFT1 (Tuftelin 1): 1.4326 fold
  Fold Up-Regulation TWIST1 (Twist homolog 1): −2.197 fold
  Fold Up-Regulation VCAM1 (Vascular cell adhesion molecule 1): −2.406 fold
  Fold Up-Regulation VDR (Vitamin D (1,25-dihydroxyvitamin D3) receptor): −1.5248 fold
  Fold Up-Regulation VEGFA (Vascular endothelial growth factor A): −1.0162 fold
  Fold Up-Regulation VEGFB (Vascular endothelial growth factor B): −1.1191 fold
